Data on eleven compounds can be found in US20240116985A1, “STAPLED PEPTIDES AND METHODS THEREOF” (priority 2020, published 2024).

Series [1] deals with T1, full-length B-Catenin (Uniprot ID P35222) (Homo sapiens, UniProt P35222).
T1 construct: 65 nM full-length B-Catenin (Uniprot ID P35222)
T1 sequence (P35222 1-781): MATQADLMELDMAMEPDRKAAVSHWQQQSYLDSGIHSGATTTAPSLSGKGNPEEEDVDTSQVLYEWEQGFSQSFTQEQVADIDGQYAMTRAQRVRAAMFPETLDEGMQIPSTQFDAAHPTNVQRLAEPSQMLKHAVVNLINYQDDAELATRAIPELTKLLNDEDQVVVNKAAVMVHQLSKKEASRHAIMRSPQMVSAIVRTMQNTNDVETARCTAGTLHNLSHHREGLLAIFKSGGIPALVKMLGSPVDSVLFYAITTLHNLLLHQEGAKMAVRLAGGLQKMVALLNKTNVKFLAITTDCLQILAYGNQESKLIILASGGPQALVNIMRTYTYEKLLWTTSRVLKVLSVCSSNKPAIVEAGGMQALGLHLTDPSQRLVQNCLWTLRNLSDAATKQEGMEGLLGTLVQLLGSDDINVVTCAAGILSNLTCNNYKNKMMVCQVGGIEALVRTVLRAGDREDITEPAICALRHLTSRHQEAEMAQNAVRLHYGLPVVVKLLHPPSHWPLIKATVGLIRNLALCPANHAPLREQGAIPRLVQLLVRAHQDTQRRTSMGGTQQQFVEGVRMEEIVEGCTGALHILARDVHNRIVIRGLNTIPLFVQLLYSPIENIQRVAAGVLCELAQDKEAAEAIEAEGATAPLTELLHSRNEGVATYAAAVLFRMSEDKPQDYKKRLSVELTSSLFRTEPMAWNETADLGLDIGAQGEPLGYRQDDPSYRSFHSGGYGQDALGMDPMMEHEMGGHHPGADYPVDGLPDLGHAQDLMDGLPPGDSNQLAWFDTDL
As to the kind of experiment: Alphascreen binding assay (beta-catenin / biotin-TCF4 10-53). The procedure: In some embodiments, an assay is an Alphascreen binding assay. A useful protocol is described below as an example.
Alphascreen binding assay: Using the AlphaScreen Histidine (Nickel Chelate) Detection Kit (PerkinElmer), peptide solutions were prepared in buffer (50 mM Tris pH 8.0, 250 mM NaCl, 2% glycerol, 0.03% Tween-20, 0.01% TritonX-100, 0.1% BSA w/v) using a 3-fold serial dilution from 10 uM to 5 nM. Probe solution (65 nM full-length B-Catenin (Uniprot ID P35222), mixed with 10 nM biotin labeled TCF4 residues 10-53 (Uniprot ID Q9NQB0) peptide in buffer) was prepared and 4 uL per well was plated in a white polystyrene 384-well plate (Corning). Equal volume of the titrated peptide was added to the plate and incubated for 15 minutes at 20° C. Then 4 uL of donor and 4 uL acceptor beads at 10 ug/mL were added to the plate, for a 16 uL reaction pool and protected from light for 60 minutes at 20° C. prior to read. Reads were performed on a CLARIOstar plate reader (BMG Labtech) in duplicate, and data were fitted to a 1:1 binding model with hill slope using an in-house script. All provided concentrations are final concentrations.

Series [2] is described as follows: CHI Log D procedure. Type of series: physicochemical. The following applies: for CHI Log D: pH 7.4; for chromatographic logD: pH 7.4, CHI Log D.

Turning to `CC(=O)N[C@@H](Cc1ccccc1)C(=O)N[C@@H](CC(=O)O)C(=O)N[C@@H](C)C(=O)N[C@]1(C)CCCCCC=CCOC(=O)N2CC[C@@](C(=O)N[C@@H](Cc3ccccc3)C(=O)N[C@@H](Cc3c[nH]c4ccccc34)C(=O)N[C@@H](CCC(N)=O)C(N)=O)(C2)NC(=O)[C@H](C(C)C)NC(=O)[C@H](Cc2ccccc2)NC(=O)[C@H](C)NC(=O)[C@H](C)NC(=O)[C@H](CC(=O)O)NC(=O)[C@H](CC(=O)O)NC1=O` [I-30, Ac-Phe-Asp-Ala-R7-Asp-Asp-Ala-Ala-Phe-Val-PyrS-Phe-Trp-Gln-NH2], the concentration for a half-maximal effect (EC50) in series [1] was 8.82 µM. The “CHI Log D” value in series [2] is reported as 1.228.

In series [1], `CC(=O)N[C@@H](Cc1ccccc1)C(=O)N[C@@H](CC(=O)O)C(=O)N[C@@H](C)C(=O)N[C@]1(C)CCCCCC=CCOC(=O)N2CC[C@@](C(=O)N[C@@H](Cc3ccccc3)C(=O)N[C@@H](Cc3c[nH]c4ccccc34)C(=O)N[C@@H](CCC(N)=O)C(N)=O)(C2)NC(=O)[C@H](C(C)C)NC(=O)[C@H](Cc2ccccc2)NC(=O)[C@H](C)NC(=O)[C@H](C)NC(=O)[C@H](CC(=O)O)NC(=O)[C@H](CC(=O)O)NC1=O` [I-31, Ac-Phe-Asp-Ala-R7-Asp-Asp-Ala-Ala-Phe-Val-PyrS-Phe-Trp-Gln-NH2] yielded an EC50 of 7.22 µM. Moreover, in series [2], the “CHI Log D” value stood at 1.245.

`CC(=O)N[C@@H](Cc1ccccc1)C(=O)N[C@@H](CC(=O)O)C(=O)N[C@@H](C)C(=O)NC12CN(C1)C(=O)OCC=CCCCCCC[C@@](C)(C(=O)N[C@@H](Cc1ccccc1)C(=O)N[C@@H](Cc1c[nH]c3ccccc13)C(=O)N[C@@H](CCC(N)=O)C(N)=O)NC(=O)[C@H](C(C)C)NC(=O)[C@H](Cc1ccccc1)NC(=O)[C@H](C)NC(=O)[C@H](C)NC(=O)[C@H](CC(=O)O)NC(=O)[C@H](CC(=O)O)NC2=O` [I-35, Ac-Phe-Asp-Ala-Az-Asp-Asp-Ala-Ala-Phe-Val-S8-Phe-Trp-Gln-NH2] yielded an EC50 in series [1] of 9.54 µM. The chromatographic logD in series [2] came out at 1.33.

Compound `CC(=O)N1CCC[C@]12CC=CCCCC1(CCCC=CCOC(=O)N(C)CCC[C@@](C)(C(=O)N[C@@H](Cc3ccccc3)C(=O)N[C@@H](Cc3c[nH]c4ccccc34)C(=O)N[C@@H](CCC(N)=O)C(N)=O)NC(=O)[C@H](C(C)C)NC(=O)[C@H](Cc3ccccc3)NC(=O)[C@H](C)NC(=O)[C@H](C)NC(=O)[C@H](CC(=O)O)NC(=O)[C@H](CC(=O)O)NC1=O)NC(=O)[C@H](C)NC(=O)[C@H](CC(=O)O)NC2=O` (stereo partly drawn) [I-53, Ac-PL3-Asp-Ala-B5-Asp-Asp-Ala-Ala-Phe-Val-SeN-Phe-Trp-Gln-NH2] came in with an EC50 in series [1] of 1.14 µM. For the same compound, the “CHI Log D” value in series [2] came out at 1.307.

Compound `CC(=O)N[C@@H](Cc1ccccc1)C(=O)N[C@@H](CC(=O)O)C(=O)N[C@@H](C)C(=O)N[C@]1(C)CCCCCCC=CCOC(=O)N2CC[C@@](C(=O)N[C@@H](CC3CCCCC3)C(=O)N[C@@H](Cc3c[nH]c4ccccc34)C(=O)N[C@@H](CCC(N)=O)C(N)=O)(C2)NC(=O)[C@H](C(C)C)NC(=O)[C@H](Cc2ccccc2)NC(=O)[C@H](C)NC(=O)[C@H](C)NC(=O)[C@H](CC(=O)O)NC(=O)[C@H](CC(=O)O)NC1=O` [I-61, Ac-Phe-Asp-Ala-R8-Asp-Asp-Ala-Ala-Phe-Val-PyrS-Cha-Trp-Gln-NH2] showed an EC50 in series [1] of 8.9 µM. Besides, the “CHI Log D” value in series [2] is 1.446.

With `CC[C@H](C)[C@H](NC(=O)[C@H](CC(=O)O)NC(=O)[C@H](C)NC(C)=O)C(=O)N[C@]1(C)CCN(C)C(=O)OCC=CCCCCC[C@@](C)(C(=O)N[C@@H](Cc2ccccc2)C(=O)N[C@@H](Cc2c[nH]c3ccccc23)C(=O)N[C@@H](Cc2c[nH]cn2)C(N)=O)NC(=O)[C@H](CCC(N)=O)NC(=O)[C@H](Cc2ccccc2)NC(=O)[C@H](C)NC(=O)[C@H](C)NC(=O)[C@H](CC(=O)O)NC(=O)[C@H](CC(=O)O)NC1=O` [I-65, Ac-Ala-Asp-Ile-RdN-Asp-Asp-Ala-Ala-Phe-Gln-S7-Phe-Trp-His-NH2], the EC50 in series [1] amounted to 2.08 µM. Also, the “CHI Log D” value in series [2] is 1.274.

The compound `CCCC[C@@H]1NC(=O)[C@H](CC(=O)O)NC(=O)[C@](C)(NC(=O)[C@@H](NC(=O)[C@H](CC(=O)O)NC(=O)[C@H](C)NC(C)=O)[C@@H](C)CC)CCN(C)C(=O)OCC=CCCCCC[C@@](C)(C(=O)N[C@@H](Cc2ccccc2)C(=O)N[C@@H](Cc2c[nH]c3ccccc23)C(=O)N[C@@H](Cc2c[nH]cn2)C(N)=O)NC(=O)[C@H](CCC(N)=O)NC(=O)[C@H](Cc2ccccc2)NC(=O)[C@H](C)NC(=O)[C@H](C)NC1=O` [I-69, Ac-Ala-Asp-Ile-RdN-Asp-nLeu-Ala-Ala-Phe-Gln-S7-Phe-Trp-His-NH2] gave an EC50 in series [1] of 9.1 µM. Further, the “CHI Log D” value in series [2] is listed as 1.593.

`CC(=O)N[C@@H](Cc1ccccc1)C(=O)N[C@@H](CC(=O)O)C(=O)N[C@@H](C)C(=O)N[C@]1(C)CCCCCCC=CCOC(=O)N2CC[C@@](C(=O)N[C@@H](Cc3ccccc3)C(=O)N[C@@H](Cc3c[nH]c4ccccc34)C(=O)N[C@@H](CCC(N)=O)C(N)=O)(C2)NC(=O)[C@H](C(C)C)NC(=O)[C@H](Cc2ccc(F)c(F)c2)NC(=O)[C@H](C)NC(=O)[C@H](C)NC(=O)[C@H](CC(=O)O)NC(=O)[C@H](CC(=O)O)NC1=O` [I-79, Ac-Phe-Asp-Ala-R8-Asp-Asp-Ala-Ala-34FF-Val-PyrS-Phe-Trp-Gln-NH2]: the half-maximal effective concentration (EC50) in series [1] turned out to be 3.97 µM. In series [2], this compound registered a chromatographic logD of 1.27.

Consider `CC(=O)N[C@@H](Cc1ccccc1)C(=O)N[C@@H](CC(=O)O)C(=O)N[C@@H](C)C(=O)N[C@]1(C)CCCCCCC=CCOC(=O)N2CC[C@@](C(=O)N[C@@H](Cc3ccccn3)C(=O)N[C@@H](Cc3c[nH]c4ccccc34)C(=O)N[C@@H](CCC(N)=O)C(N)=O)(C2)NC(=O)[C@H](C(C)C)NC(=O)[C@H](Cc2ccccc2)NC(=O)[C@H](C)NC(=O)[C@H](C)NC(=O)[C@H](CC(=O)O)NC(=O)[C@H](CC(=O)O)NC1=O` [I-81, Ac-Phe-Asp-Ala-R8-Asp-Asp-Ala-Ala-Phe-Val-PyrS-2PyrA-Trp-Gln-NH2], for which, in series [1], the response was half-maximal at 9.77 µM (EC50). In series [2], the “CHI Log D” value came out at 1.063.

`CC(=O)N[C@@H](Cc1ccccc1)C(=O)N[C@@H](CC(=O)O)C(=O)N[C@@H](C)C(=O)N[C@]1(C)CCCCCCC=CCOC(=O)N2CC[C@@](C(=O)N[C@@H](Cc3ccc(C(N)=O)cc3)C(=O)N[C@@H](Cc3c[nH]c4ccccc34)C(=O)N[C@@H](CCC(N)=O)C(N)=O)(C2)NC(=O)[C@H](C(C)C)NC(=O)[C@H](Cc2ccccc2)NC(=O)[C@H](C)NC(=O)[C@H](C)NC(=O)[C@H](CC(=O)O)NC(=O)[C@H](CC(=O)O)NC1=O` [I-89, Ac-Phe-Asp-Ala-R8-Asp-Asp-Ala-Ala-Phe-Val-PyrS-4CBMF-Trp-Gln-NH2]: in series [1], it took 5.64 µM to reach a half-maximal effect (EC50). For the same compound, the “CHI Log D” value in series [2] is 0.967.

`CC(=O)N[C@@H](Cc1ccccc1)C(=O)N[C@@H](CC(=O)O)C(=O)N[C@@H](C)C(=O)N[C@]1(C)CCCCCCC=CCOC(=O)N2CC[C@@](C(=O)N[C@@H](Cc3ccccc3)C(=O)N[C@@H](Cc3c[nH]c4ccccc34)C(=O)N[C@@H](CCC(N)=O)C(N)=O)(C2)NC(=O)[C@H](C(C)C)NC(=O)[C@H](Cc2ccc(C(N)=O)cc2)NC(=O)[C@H](C)NC(=O)[C@H](C)NC(=O)[C@H](CC(=O)O)NC(=O)[C@H](CC(=O)O)NC1=O` [I-91, Ac-Phe-Asp-Ala-R8-Asp-Asp-Ala-Ala-4CBMF-Val-PyrS-Phe-Trp-Gln-NH2] showed an EC50 in series [1] of 4.72 µM. The “CHI Log D” value in series [2] turned out to be 1.13.
